Tests used:
[1] = system: NIH-H460 cells of lung carcinoma; test: Inhibition of cell proliferation, NIH-H460 cells counted by Cell Counter; assay type: cell-based
Protocol: The experimentation has been carried out on NIH-H460 cells of lung carcinoma (D. N. Carney et al., Cancer Res., 45, 2913-2923, 1985) grown in monolayer in the RPMI 1640 nutrient medium (Bio Whittaker, Verviers, Belgium) added with 10% by volume with respect to the total volume of FCS (Fetal Calf Serum), at the temperature of 37° C., in a CO2 atmosphere humidified at 5%.
The cells have been put in 24 wells plates, using as nutrient medium RPMI 1640 added with 10% of FCS, and left to adhere for 24 hours. The insemination medium has been then removed and substituted with the experimental medium consisting of RPMI 1640 with 10% of FCS and increasing concentrations of sodium butyrate, or of cholesteryl butyrate in form of nanospheres prepared as in the above reported example 1. The cells have been kept for 6 days in contact with such experimental medium.
The effect of the sodium butyrate and of cholesteryl butyrate on the cell growth has been estimated counting the cells by a Cell Counter.

[2] = system: cells of the mastocarcinoma, MCF7; test: Inhibition of cell proliferation, MCF7 cells counted by Cell Counter; assay type: cell-based; details: Homo sapiens, MCF7, 144 h, read-out: inhibition of the cell growth
Protocol: The above described experiment has been repeated on cells of the mastocarcinoma, identified with the MCF7 abbreviation, using as insemination medium DMEM/F12 (Dulbecco's modified Eagle's medium, Sigma Chemical Co., St. Louis, Mo.) with 2% FCS.
Said cells have been placed in 12 well plates, where they have been left to adhere for 24 hours in the above described nutrition medium.
The nutrient medium has been then removed and substituted with the experimental medium consisting of DMEM/F12 with 10% FCS added with increasing concentrations of sodium butyrate, or of cholesteryl butyrate in form of nanospheres prepared according to the above reported example 2. The cells have been kept for 6 days in contact with such experimental medium.
The antiproliferative effect of the cholesteryl butyrate nanospheres on the cell growth has been estimated counting the cells with a Cell Counter.

| Structure (SMILES) | effect on the cell proliferation ([1]; comparison test, additive of the experimental medium RPMI 1640 with 10% FCS) | inhibition at 200 µM [2] | inhibition at 210 µM ([1]; NIH-H460, 144 h, read-out: inhibition of the cell growth) |
| --- | --- | --- | --- |
| CC(C)CCC[C@@H](C)[C@H]1CC[C@H]2[C@@H]3CC=C4C[C@@H](O)CC[C@]4(C)[C@H]3CC[C@]12C [cholesterol] | does not affect the cell proliferation in any way |  |  |
| CCCC(=O)[O-].[Na+] [sodium butyrate] |  | 40% | 50% |

Source: patent publication US6685960B1, “Solid lipidic nanospheres suitable to a fast internalization into cells” (priority 1998, dated 2004)
